In US20230355511A1, “BIO[…] AND SOLVENT COMPOSITIONS AND SYSTEMS FOR EXTENDED STORAGE AND […] OF ACTIVE PHARMACEUTICAL INGREDIENTS” (TOLMAR INTERNATIONAL LIMITED, priority 2020, published 2023):

Assay: In vitro release of TU, jar technique, 1% CTAB in TRIS buffer pH 8.7, 37° C.
Format: in vitro ADME
Details: FIG. 14, Table 11 formulations, 200 mg depot in 200 mL media
Protocol: The in vitro release profiles of solidifying liquid polymer formulations containing TU were conducted using jar technique method with 1% CTAB surfactant in TRIS buffer, pH 8.7 at 37° C. Depots were made by injecting 200 mg of formulation into 200 mL release media. Samples were then periodically collected and analyzed for released drug content. […] Non-formulated TU with a particle size of 67 μm (i.e., with no polymer) were also analyzed as a reference. Additionally, a 20% TU non-solidifying liquid polymer comprising 30% of a 14.2 kDa PDLCL liquid polymer with 25% NMP and 25% PEG 300 was prepared as a reference.

SMILES: CCCCCCCCCCC(=O)O[C@H]1CC[C@H]2[C@@H]3CCC4=CC(=O)CC[C@]4(C)[C@H]3CC[C@]12C [non-formulated TU particles, testosterone undecanoate]
- TU released within the first 7 days: approximately 75%
